Molecular target: T1, human IGF-1R (Homo sapiens, UniProt P08069)
T1 construct: human IGF-1R, amino acids 954-1367 expressed by baculovirus in Sf21 cells; GST (C); purchased Cell Signaling Technology; host or cells: baculovirus in Sf21 cells
Assay: IGF-1R homogenous time-resolved fluorescence (HTRF) in vitro kinase assay
Format: biochemical
Conditions: recombinant GST-tagged human IGF-1R aa 954-1367; ATP 50 μM; 60 minutes at room temperature
Experimental: IGF-1R kinase activity was assayed by a homogenous time-resolved fluorescence (HTRF) in vitro kinase assay (Mathis, G., HTRF(R) Technology. J Biomol Screen, 1999. 4(6): p. 309-314). Specifically, 10 μL C-terminal GST-tagged, recombinant, human IGF-1R, amino acids 954-1367 expressed by baculovirus in Sf21 cells (Cell Singaling Technology) was mixed with 10 μL inhibitor (various concentrations, 2% final DMSO) and 10 μL of ATP (50 μM final concentration) in reaction buffer (50 mM HEPES, pH 7.5, 10 mM MgCl2, 2 mM MnCl2, 0.1% BSA and 1 mM DTT, 40 μL final volume). The reaction was initiated by addition of 10 μL of biotinylated peptide substrate (Biotin-Ahx-[…], 0.5 μM final concentration) in a black 384-well plate (Packard). […] The quenched reaction was allowed to stand at room temperature for 1 hour and then read in a time-resolved fluorescence detector (Envision, Perkin Elmer) at 615 nm and 665 nm simultaneously. The ratio between the signal of 615 nm and 665 nm was used in the calculation of the IC50.

T1 sequence (P08069 954-1367): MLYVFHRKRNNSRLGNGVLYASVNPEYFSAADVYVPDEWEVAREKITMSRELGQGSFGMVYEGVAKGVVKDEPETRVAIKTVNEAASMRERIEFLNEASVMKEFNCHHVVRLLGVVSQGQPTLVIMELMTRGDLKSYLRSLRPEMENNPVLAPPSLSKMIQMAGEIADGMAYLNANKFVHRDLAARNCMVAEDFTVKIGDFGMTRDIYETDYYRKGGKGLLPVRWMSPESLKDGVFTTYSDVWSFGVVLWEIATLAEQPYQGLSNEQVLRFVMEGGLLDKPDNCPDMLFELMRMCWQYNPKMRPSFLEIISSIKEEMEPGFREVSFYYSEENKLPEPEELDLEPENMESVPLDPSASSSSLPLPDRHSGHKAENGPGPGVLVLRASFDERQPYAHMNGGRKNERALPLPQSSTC

Row | Structure (SMILES) | IC50 [nM]
1 | CCS(=O)(=O)c1cc2[nH]ncc2cc1Nc1nc(Nc2ccc(N3CCOCC3)cc2OC)ncc1Br [Example 32, 5-bromo-N^4-[6-(ethylsulfonyl)-1H-indazol-5-yl]-N^2-(2-methoxy-4-morpholin-4-ylphenyl)pyrimidine-2,4-diamine] | 10 to 50
2 | CCS(=O)(=O)c1cc2c(cnn2C)cc1Nc1nc(Nc2ccc(N3CCC(N(C)C)CC3)cc2OC)ncc1Br [Example 33, 5-bromo-N^2-{4-[4-(dimethylamino)piperidin-1-yl]-2-methoxyphenyl}-N^4-[6-(ethylsulfonyl)-1-methyl-1H-indazol-5-yl]pyrimidine-2,4-diamine] | < 10
3 | COc1cc(N2CCC(N(C)C)CC2)ccc1Nc1ncc(Br)c(Nc2cc3cnn(C)c3cc2S(C)(=O)=O)n1 [Example 34, 5-bromo-N^2-{4-[4-(dimethylamino)piperidin-1-yl]-2-methoxyphenyl}-N^4-[1-methyl-6-(methylsulfonyl)-1H-indazol-5-yl]pyrimidine-2,4-diamine] | 10 to 50
4 | CNC(=O)c1cc2c(cnn2C)cc1Nc1nc(Nc2ccc(N3CCC(N(C)C)CC3)cc2OC)ncc1Br [Example 35, 5-{[5-bromo-2-({4-[4-(dimethylamino)piperidin-1-yl]-2-methoxyphenyl}amino)pyrimidin-4-yl]amino}-N,1-dimethyl-1H-indazole-6-carboxamide] | 10 to 50
5 | CCS(=O)(=O)c1cc2c(cnn2C)cc1Nc1nc(Nc2ccc(N3CCC(N(C)C)CC3)cc2)ncc1Br [Example 36, 5-bromo-N^2-{4-[4-(dimethylamino)piperidin-1-yl]phenyl}-N^4-[6-(ethylsulfonyl)-1-methyl-1H-indazol-5-yl]pyrimidine-2,4-diamine] | 10 to 50
6 | CN(C)C1CCN(c2ccc(Nc3ncc(Br)c(Nc4cc5cnn(C)c5cc4S(C)(=O)=O)n3)cc2)CC1 [Example 37, 5-bromo-N^2-{4-[4-(dimethylamino)piperidin-1-yl]phenyl}-N^4-[1-methyl-6-(methylsulfonyl)-1H-indazol-5-yl]pyrimidine-2,4-diamine] | 10 to 50
7 | CNC(=O)c1cc2c(cnn2C)cc1Nc1nc(Nc2ccc(N3CCC(N(C)C)CC3)cc2)ncc1Br [Example 38, 5-{[5-bromo-2-({4-[4-(dimethylamino)piperidin-1-yl]phenyl}amino)pyrimidin-4-yl]amino}-N,1-dimethyl-1H-indazole-6-carboxamide] | 10 to 50
8 | CCS(=O)(=O)c1cc2c(cnn2C)cc1Nc1nc(Nc2ccc(N3CCOCC3)cc2OC)ncc1Br [Example 39, 5-bromo-N^4-[6-(ethylsulfonyl)-1-methyl-1H-indazol-5-yl]-N^2-(2-methoxy-4-morpholin-4-ylphenyl)pyrimidine-2,4-diamine] | 10 to 50
9 | COc1cc(N2CCOCC2)ccc1Nc1ncc(Br)c(Nc2cc3cnn(C)c3cc2S(C)(=O)=O)n1 [Example 40, 5-bromo-N^2-(2-methoxy-4-morpholin-4-ylphenyl)-N^4-[1-methyl-6-(methylsulfonyl)-1H-indazol-5-yl]pyrimidine-2,4-diamine] | 10 to 50
10 | CNC(=O)c1cc2c(cnn2C)cc1Nc1nc(Nc2ccc(N3CCOCC3)cc2OC)ncc1Br [Example 41, 5-({5-bromo-2-[(2-methoxy-4-morpholin-4-ylphenyl)amino]pyrimidin-4-yl}amino)-N,1-dimethyl-1H-indazole-6-carboxamide] | 10 to 50
11 | CCS(=O)(=O)c1cc2c(cnn2C)cc1Nc1nc(Nc2ccc(N3CCN(C(C)C)CC3)cc2OC)ncc1Br [Example 42, 5-bromo-N^4-[6-(ethylsulfonyl)-1-methyl-1H-indazol-5-yl]-N^2-[4-(4-isopropylpiperazin-1-yl)-2-methoxyphenyl]pyrimidine-2,4-diamine] | < 10
12 | COc1cc(N2CCN(C(C)C)CC2)ccc1Nc1ncc(Br)c(Nc2cc3cnn(C)c3cc2S(C)(=O)=O)n1 [Example 43, 5-bromo-N^2-[4-(4-isopropylpiperazin-1-yl)-2-methoxyphenyl]-N^4-[1-methyl-6-(methylsulfonyl)-1H-indazol-5-yl]pyrimidine-2,4-diamine] | 10 to 50
13 | CNC(=O)c1cc2c(cnn2C)cc1Nc1nc(Nc2ccc(N3CCN(C(C)C)CC3)cc2OC)ncc1Br [Example 44, 5-[(5-bromo-2-{[4-(4-isopropylpiperazin-1-yl)-2-methoxyphenyl]amino}pyrimidin-4-yl)amino]-N,1-dimethyl-1H-indazole-6-carboxamide] | 10 to 50
14 | CCS(=O)(=O)c1cc2c(cnn2C)cc1Nc1nc(Nc2ccc(N3CCS(=O)(=O)CC3)cc2)ncc1Br [Example 45, 5-bromo-N^2-[4-(1,1-dioxidothiomorpholin-4-yl)phenyl]-N^4-[6-(ethylsulfonyl)-1-methyl-1H-indazol-5-yl]pyrimidine-2,4-diamine] | 51 to 100
15 | CCS(=O)(=O)c1cc2c(cnn2C)cc1Nc1nc(Nc2ccc(N3CCC(N4CCN(C)CC4)CC3)cc2OC)ncc1Br [Example 46, 5-bromo-N^4-[6-(ethylsulfonyl)-1-methyl-1H-indazol-5-yl]-N^2-{2-methoxy-4-[4-(4-methylpiperazin-1-yl)piperidin-1-yl]phenyl}pyrimidine-2,4-diamine] | < 10
16 | COc1cc(N2CCC(N3CCN(C)CC3)CC2)ccc1Nc1ncc(Br)c(Nc2ccc3nc(-c4ccccc4)ccc3c2)n1 [Example 47, 5-bromo-N^2-{2-methoxy-4-[4-(4-methylpiperazin-1-yl)piperidin-1-yl]phenyl}-N^4-(2-phenylquinolin-6-yl)pyrimidine-2,4-diamine] | > 500
17 | COc1cc(N2CCC(N3CCN(C)CC3)CC2)ccc1Nc1ncc(Br)c(Nc2ccc3ccc(-c4ccccc4)nc3c2)n1 [Example 48, 5-bromo-N^2-{2-methoxy-4-[4-(4-methylpiperazin-1-yl)piperidin-1-yl]phenyl}-N^4-(2-phenylquinolin-7-yl)pyrimidine-2,4-diamine] | > 500
18 | COc1cc(N2CCC(N3CCN(C)CC3)CC2)ccc1Nc1ncc(Br)c(Nc2ccc3ncccc3c2)n1 [Example 49, 5-bromo-N^2-{2-methoxy-4-[4-(4-methylpiperazin-1-yl)piperidin-1-yl]phenyl}-N^4-quinolin-6-ylpyrimidine-2,4-diamine] | 10 to 50
19 | COc1cc(N2CCC(N3CCN(C)CC3)CC2)ccc1Nc1ncc(Br)c(Nc2ccc3cccnc3c2)n1 [Example 50, 5-bromo-N^2-{2-methoxy-4-[4-(4-methylpiperazin-1-yl)piperidin-1-yl]phenyl}-N^4-quinolin-7-ylpyrimidine-2,4-diamine] | 10 to 50
20 | COc1cc(N2CCC(N3CCN(C)CC3)CC2)ccc1Nc1ncc(Br)c(Oc2ccc3cccnc3c2)n1 [Example 51, 5-bromo-N-{2-methoxy-4-[4-(4-methylpiperazin-1-yl)piperidin-1-yl]phenyl}-4-(quinolin-7-yloxy)pyrimidin-2-amine] | 10 to 50

Source: patent publication US8486933B2, “Pyrimidine inhibitors of kinase activity” (AbbVie Inc., priority 2009, dated 2013)
